Measured values from ChEMBL document CHEMBL5543140 (J Med Chem, 2024).
Active and inactive are the calls of the source. No cut-off for these calls is given here.

What was measured:
[1] = AUClast in beagle dog at 2 mg/kg, po measured upto 24 hrs; type: ADME, organism-based, Canis lupus familiaris; conditions: in vivo
[2] = Ex vivo binding in C57BL/6J mouse brain frontal cortex assessed as inhibition of [3H]Cimbi-36 binding at 1 mg/kg, sc measured after 220 mins by liquid scintillation counting analysis (reference value: 0%); type: functional; conditions: 3.667 h
[3] = Clearance in beagle dog at 0.4 mg/kg, iv measured upto 24 hrs; type: ADME, organism-based, Canis lupus familiaris; conditions: in vivo
Mus musculus [4] = assay: Psychedelic effect in C57BL/6J mouse assessed as induction of 5-HT2A receptor dependent maximal head-twitch responses by visual observation at 1 mg/kg, sc at 40 mins post- administration; type: functional, organism-based
[5] = target: 5-hydroxytryptamine receptor 2A (Homo sapiens, UniProt P28223); assay: Agonist activity at human 5-HT2A receptor expressed in HEK293 cells assessed as maximal IP2 production measured after 30 mins incubation by HTRF assay relative to control; type: functional, cell-based; conditions: filed as agonist
5-hydroxytryptamine receptor 2A, sequence (P28223 whole entry): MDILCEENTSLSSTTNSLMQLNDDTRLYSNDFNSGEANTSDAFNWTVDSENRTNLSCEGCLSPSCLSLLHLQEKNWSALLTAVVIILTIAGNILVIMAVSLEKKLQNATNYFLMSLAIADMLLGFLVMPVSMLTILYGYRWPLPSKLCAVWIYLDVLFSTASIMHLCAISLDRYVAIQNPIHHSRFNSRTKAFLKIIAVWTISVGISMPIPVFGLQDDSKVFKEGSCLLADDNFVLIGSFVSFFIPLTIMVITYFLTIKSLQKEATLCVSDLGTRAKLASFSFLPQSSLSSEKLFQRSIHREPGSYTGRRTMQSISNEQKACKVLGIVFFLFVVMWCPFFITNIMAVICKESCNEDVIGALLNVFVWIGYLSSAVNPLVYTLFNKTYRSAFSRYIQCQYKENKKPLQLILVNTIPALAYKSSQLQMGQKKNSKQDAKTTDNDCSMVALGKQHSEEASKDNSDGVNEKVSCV

[6] = Metabolic stability in rat liver S9 fractions assessed as half life; type: ADME, subcellular; conditions: liver S9 fraction
Mus musculus [7] = assay: Psychedelic effect in C57BL/6J mouse assessed as development of tolerance/ tachyphylaxis at 3 mg/kg, sc measured on day 4 by head-twitch responses test; type: functional, organism-based; conditions: time 4.0 day
[8] = MRTlast in Wistar rat plasma at 5 mg/kg, po measured upto 48 hrs; type: ADME, organism-based
[9] = AUCinf in male Sprague-Dawley rat CSF at 1 mg/kg, iv measured upto 8 hrs by LC-MS/MS analysis; type: ADME, organism-based, Cerebrospinal fluid
[10] = MRTinf in male Sprague-Dawley rat CSF at 1 mg/kg, iv measured upto 8 hrs by LC-MS/MS analysis; type: ADME, organism-based, Cerebrospinal fluid
Hippocampus = assay: Induction of neuroplasticity in C57BL/6J mouse assessed as increase in Homer 1 mRNA expression in brain hippocampus at 3 mg/kg, sc single dose by RT-PCR analysis; type: functional, organism-based
[11] = Cmax in mouse C57BL/6J brain at 3 mg/kg, po measured after 1 hrs; type: ADME, organism-based
[12] = target: Alpha-2A adrenergic receptor (Homo sapiens, UniProt P08913); assay: Displacement of [3H]-rauwolscine from human recombinant adrenergic alpha-2A receptor expressed in CHO-K1 cells incubated for 60 mins by […] analysis relative to control; type: cell-based
Alpha-2A adrenergic receptor, sequence (P08913 whole entry): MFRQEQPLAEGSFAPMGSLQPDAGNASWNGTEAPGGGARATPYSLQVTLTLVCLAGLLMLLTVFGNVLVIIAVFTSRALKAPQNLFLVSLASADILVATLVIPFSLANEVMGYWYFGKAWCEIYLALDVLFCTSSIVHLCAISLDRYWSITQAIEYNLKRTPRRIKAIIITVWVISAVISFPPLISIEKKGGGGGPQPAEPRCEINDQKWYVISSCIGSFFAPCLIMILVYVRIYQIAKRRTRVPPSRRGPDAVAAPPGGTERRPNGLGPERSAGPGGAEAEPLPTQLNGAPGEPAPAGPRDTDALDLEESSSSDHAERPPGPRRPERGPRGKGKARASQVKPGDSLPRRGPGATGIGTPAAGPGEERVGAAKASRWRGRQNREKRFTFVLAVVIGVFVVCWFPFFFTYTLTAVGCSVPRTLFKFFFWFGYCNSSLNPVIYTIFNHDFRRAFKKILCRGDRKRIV

[13] = Ex vivo binding in C57BL/6J mouse brain frontal cortex assessed as inhibition of [3H]Cimbi-36 binding at 1 mg/kg, sc measured after 5 mins by liquid scintillation counting analysis (reference value: 0%); type: functional
Mus musculus [14] = assay: Psychedelic effect in C57BL/6J mouse assessed as induction of 5-HT2A receptor dependent maximal head-twitch responses by visual observation at 1 to 3 mg/kg, sc at 40 mins post- administration measured upto 360 mins; type: functional, organism-based; conditions: dose 1-3 mg/kg
Mus musculus [15] = assay: Psychedelic effect in C57BL/6J mouse assessed as induction of 5-HT2A receptor dependent head-twitch responses by visual observation at 1 to 10 mg/kg, po measured for 120 to 150 mins relative to DOI; type: functional, organism-based; conditions: dose 1-10 mg/kg, time lower […], time upper 150.0 min
[16] = target: T1, 5-hydroxytryptamine receptor 1A (Homo sapiens) (UniProt P08908); assay: Displacement of [3H]-8-OH-DPAT from 5-HT1A receptor (unknown origin) assessed as inhibition binding at 10 uM relative to control
T1 sequence (whole entry): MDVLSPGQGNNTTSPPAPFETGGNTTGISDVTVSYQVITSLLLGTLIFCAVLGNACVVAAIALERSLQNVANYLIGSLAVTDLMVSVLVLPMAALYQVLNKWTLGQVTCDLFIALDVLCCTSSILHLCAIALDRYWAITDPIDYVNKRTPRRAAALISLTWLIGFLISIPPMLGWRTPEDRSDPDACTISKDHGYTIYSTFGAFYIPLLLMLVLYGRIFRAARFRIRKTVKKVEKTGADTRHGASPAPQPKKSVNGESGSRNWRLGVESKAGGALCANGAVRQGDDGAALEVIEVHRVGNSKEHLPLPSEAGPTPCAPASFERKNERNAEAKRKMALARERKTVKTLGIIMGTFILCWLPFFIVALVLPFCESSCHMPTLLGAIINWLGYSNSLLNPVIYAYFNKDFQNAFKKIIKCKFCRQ

[17] = target: 5-hydroxytryptamine receptor 1A (Homo sapiens, UniProt P08908); assay: Displacement of [3H]-8-OH-DPAT from 5-HT1A receptor (unknown origin) assessed as inhibition binding
[18] = MRTlast in Wistar rat plasma at 1 mg/kg, iv measured upto 48 hrs; type: ADME, organism-based
[19] = Ex vivo binding in C57BL/6J mouse brain frontal cortex assessed as inhibition of [3H]Cimbi-36 binding at 1 mg/kg, sc measured after 360 mins by liquid scintillation counting analysis (reference value: 0%); type: functional; conditions: 6 h
[20] = MRTlast in Wistar rat brain at 5 mg/kg, po measured upto 48 hrs; type: ADME, organism-based
Brain = assay: Drug binding in male C57BL/6J mouse brain homogenate at 1 mg/kg, iv measured upto 8 hrs by LC-MS/MS analysis; type: ADME, organism-based; conditions: in vivo
[21] = Cmax in beagle dog at 2 mg/kg, po measured upto 24 hrs; type: ADME, organism-based, Canis lupus familiaris; conditions: in vivo
[22] = Volume of distribution at steady state in beagle dog at 0.4 mg/kg, iv measured upto 24 hrs; type: ADME, organism-based, Canis lupus familiaris; conditions: in vivo, read-out: Vdss
[23] = Oral bioavailability in beagle dog at 2 mg/kg measured upto 24 hrs; type: ADME, organism-based, Canis lupus familiaris; conditions: in vivo
[24] = Half life in beagle dog at 2 mg/kg, po measured upto 24 hrs; type: ADME, organism-based, Canis lupus familiaris; conditions: in vivo
Mus musculus [25] = assay: Induction of neuroplasticity in C57BL/6J mouse assessed as increase in BDNF mRNA expression in brain frontal cortex at 3 mg/kg, sc single dose by RT-PCR analysis; type: functional, organism-based
[26] = Metabolic stability in monkey liver S9 fractions assessed as half life; type: ADME, subcellular, Macaca fascicularis; conditions: cynomolgus monkey, liver S9 fraction
Mus musculus [27] = assay: Locomotor activity in C57BL/6J mouse assessed as distance traveled at 10 mg/kg, po measured for 15 to 25 mins (reference value: 1710 +/- 120 cm) by Ethovision tracking system; type: functional; conditions: time 15-25 min
[28] = target: 5-hydroxytryptamine receptor 7 (Homo sapiens, UniProt P34969); assay: Displacement of [3H]LSD from 5-HT7 receptor (unknown origin) assessed as inhibition binding at 10 uM relative to control
5-hydroxytryptamine receptor 7, sequence (P34969 whole entry): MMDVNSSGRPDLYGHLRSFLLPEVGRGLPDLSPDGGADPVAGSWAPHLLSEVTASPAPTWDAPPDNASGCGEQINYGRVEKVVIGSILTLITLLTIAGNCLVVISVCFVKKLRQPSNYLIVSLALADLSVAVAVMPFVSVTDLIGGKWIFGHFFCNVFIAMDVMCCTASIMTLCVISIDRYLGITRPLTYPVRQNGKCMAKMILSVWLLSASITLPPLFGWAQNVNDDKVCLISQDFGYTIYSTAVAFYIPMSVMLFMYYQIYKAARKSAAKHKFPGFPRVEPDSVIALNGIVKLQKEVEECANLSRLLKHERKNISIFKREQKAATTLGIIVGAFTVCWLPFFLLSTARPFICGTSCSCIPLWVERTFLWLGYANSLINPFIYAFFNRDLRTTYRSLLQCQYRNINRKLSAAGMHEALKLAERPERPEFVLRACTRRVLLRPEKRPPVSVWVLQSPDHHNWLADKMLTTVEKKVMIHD

COc1cc([Se]C(F)(F)F)c(OC)cc1CCN.Cl
AUC(0-t) at 24 h [1]: 2720 ng·h/mL | inhibition in vivo at 1 mg/kg [2]: 27% | clearance [3]: 15.8 mL/min/kg | Activity (Mus musculus [4]): Active | Emax [5]: 87% | half-life [6]: 1.27 h | Activity (Mus musculus [7]): inactive | MRT last at 48 h [8]: 2.25 h | AUC(0-inf) [9]: 51.4 ng·h/mL | MRT inf [10]: 1.51 h | Activity (Hippocampus): inactive | Cmax [11]: 2370 ng/g | Ki [12]: 72 nM | inhibition in vivo at 1 mg/kg [13]: 13% | Activity (Mus musculus [14]): Active | Activity (Mus musculus [15]): Active | inhibition [16]: 98% | Ki [17]: 32 nM | MRT last at 48 h [18]: 0.62 h | inhibition in vivo at 1 mg/kg [19]: 25% | MRT last at 48 h [20]: 3.3 h | Activity (Brain): > 98% | Cmax [21]: 263 ng/mL | Vd [22]: 5.29 L/kg | bioavailability [23]: 138% | half-life [24]: 6.78 h | Activity (Mus musculus [25]): Active | half-life [26]: 0.633 h | Activity (Mus musculus [27]): 1974 cm | inhibition [28]: 86%
